This note sets out measurements from patent US20240376097A1, “BCL-2 Inhibitor” (BeiGene Ltd., priority 2020, published 2024).

Assay [1] deals with Recombinant human Bcl-2 protein (Homo sapiens (Human), UniProt P10415). The assay can be described thus: Bcl-2 TR-FRET Assay. It counts as binding. An outline of the steps: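 TR-FRET read (337 nm excitation, 520/490 nm emission) after 1 h with 0.5 nM FITC-labeled Bak peptide and Tb-cryptate anti-6His antibody. Bcl-2 at 0.05 nM had been pre-incubated 0.5 h with compound. IC50 fitted by four-parameter logistic equation.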
(In TR-FRET formats the signal depends on donor and acceptor labels being close together.)

In assay [2] the target is recombinant human Bcl-2-G101V protein (Homo sapiens (Human), UniProt P10415, G101V). The assay can be described thus: Bcl-2-G101V TR-FRET Assay. It is filed as binding. The following applies: Bcl-2 G101V mutant, TR-FRET; read-out: Biochemical assay (IC50, nM) Bcl-2 G101V. An outline of the steps:
(§1)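 Percent inhibition of the Bcl-2-G101V–ligand interaction was computed from the 490 nm to 520 nm emission ratio after 337 nm excitation, over increasing compound concentrations; a four-parameter logistic fit gave IC50.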

For assay [3], the system named is recombinant human Bcl-2-G101V protein. The assay can be described thus: Bcl-2-G101V TR-FRET Assay. Particulars: ratio of biochemical IC50 Bcl-2 G101V / Bcl-2 WT. It is filed as binding. An outline of the steps:
as §1

For assay [4], the system named is RS4;11 (BCL-2 dependent acute lymphoblastic leukemia cell line). The assay can be described thus: RS4;11 Cell Proliferation Assay. It is filed as cell-based. The following applies: Homo sapiens, RS4-11, RS4;11 cells, read-out: Cellular proliferation assay (IC50, nM) RS4. In a few lines: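 Viability measured via CellTiter-Glo luminescence after a 48 h, 37 °C exposure to compounds (10 points, highest 1 μM). Seeding was 50,000 RS4;11 cells per well in 10% FBS RPMI-1640; IC50 given as mean.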

Assay [5] relates to BCL-2 G101V knock-in cell line H96 (derive from RS4;11). Kind of assay: Bcl 2-G101V Knock-In RS4;11 Cell Proliferation Assay. It is filed as cell-based. Particulars: Homo sapiens, RS4;11 Bcl-2 G101V knock-in clone H96, 48 hrs, CellTiter-GLO, read-out: Cellular proliferation assay (IC50, nM) RS4. An outline of the steps: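 CellTiter-Glo luminescence after 48 h, 37 °C compound treatment (10 concentrations, maximum 1 μM or 10 μM) gave mean IC50 values. Cells were 50,000 per well of H96, a BCL2-G101V knock-in single clone derived from RS4;11 by Cas9 editing.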

Assay [6] addresses recombinant human Bcl-2 D103Y protein (Homo sapiens (Human), UniProt P10415, D103Y). Kind of assay: Bcl-2-D103Y Biochemical Assay (TR-FRET). It is filed as binding. Particulars: for IC50: TR-FRET, FITC labeled Bak peptide; for Ratio of Bcl-2 D103Y/Bcl-2 WT: ratio of IC50. An outline of the steps: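 Compounds titrated against the Bcl-2 D103Y–ligand interaction; inhibition derived from the TR-FRET emission ratio 490 nm/520 nm after 337 nm excitation. Four-parameter logistic fitting gave IC50.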

The mark [7] stands for this setting: Bcl-2 wild type, TR-FRET, read-out: Biochemical assay (IC50, nM) Bcl-2 WT.
[8] abbreviates: wild type Bcl-2, unit inferred, read-out: Bcl-2 WT.

Read-outs that look alike come from different tables or passages of the source.

For `[2H]C([2H])([2H])Oc1ccc(CN2CCN(C3CC4(C3)CN(c3ccc(C(=O)NS(=O)(=O)c5ccc(NC[C@H]6CC[C@](C)(O)CC6)c([N+](=O)[O-])c5)c(Oc5cnc6[nH]cc(F)c6c5)c3)C4)[C@H](c3ccccc3C(C)C)C2)cc1` [Example 218, 2-((3-fluoro-1H-pyrrolo[2,3-b]pyridin-5-yl)oxy)-N-((4-((((1r,4r)-4-hydroxy-4-methylcyclohexyl)methyl)amino)-3-nitrophenyl)sulfonyl)-4-(6-((R)-2-(2-isopropylphenyl)-4-(4-(methoxy-d3)benzyl)piperazin-1-yl)-2-azaspiro[3.3]heptan-2-yl) benzamide], the IC50 came to 0.1 nM in assay [1] (setting [7]); 0.1 nM in assay [1] (setting [8]); 0.25 nM in assay [2]; 0.12 nM in assay [4]; 0.29 nM in assay [5]; 0.11 nM in assay [6]. Further, the “Ratio of Bcl-2 G101V/WT” value in assay [3] was found to be 2.5. In addition, in assay [6], the “Ratio of Bcl-2 D103Y/Bcl-2 WT” value was 1.0.

In the case of `COc1ccc(CN2CCN(C3CC4(C3)CN(c3ccc(C(=O)NS(=O)(=O)c5ccc(NC[C@H]6CC[C@](C)(O)CC6)c([N+](=O)[O-])c5)c(Oc5cnc6[nH]cc(F)c6c5)c3)C4)[C@H](c3ccccc3C(C)C)C2)nc1` [Example 241, 2-((3-fluoro-1H-pyrrolo[2,3-b]pyridin-5-yl)oxy)-N-((4-((((1r,4r)-4-hydroxy-4-methylcyclohexyl)methyl)amino)-3-nitrophenyl)sulfonyl)-4-(6-((R)-2-(2-isopropylphenyl)-4-((5-methoxypyridin-2-yl)methyl)piperazin-1-yl)-2-azaspiro[3.3]heptan-2-yl)benzamide], the IC50 in assay [1] (setting [7]) worked out at 0.035 nM; in assay [1] (setting [8]) it was 0.035 nM; in assay [2], 0.096 nM; in assay [4], 0.15 nM; in assay [5] it was 0.32 nM; in assay [6], 0.047 nM. For the same compound, the “Ratio of Bcl-2 G101V/WT” value in assay [3] is 2.7. The “Ratio of Bcl-2 D103Y/Bcl-2 WT” value in assay [6] was found to be 1.3.

For the compound `COc1cc(CN2CCN(C3CC4(C3)CN(c3ccc(C(=O)NS(=O)(=O)c5ccc(NCC6CCOCC6)c([N+](=O)[O-])c5)c(Oc5cnc6[nH]cc(F)c6c5)c3)C4)[C@H](c3ccccc3C(C)C)C2)ccc1C1CC1` [Example 320, (R)-4-(6-(4-(4-cyclopropyl-3-methoxybenzyl)-2-(2-isopropylphenyl)piperazin-1-yl)-2-azaspiro[3.3]heptan-2-yl)-2-((3-fluoro-1H-pyrrolo[2,3-b]pyridin-5-yl)oxy)-N-((3-nitro-4-(((tetrahydro-2H-pyran-4-yl)methyl)amino)phenyl)sulfonyl) benzamide], the IC50 turned out to be 0.55 nM in assay [1] (setting [7]); 0.55 nM in assay [1] (setting [8]); 1.7 nM in assay [2]; 0.19 nM in assay [4]; 0.47 nM in assay [5]; 0.52 nM in assay [6]. For the same compound, the “Ratio of Bcl-2 G101V/WT” value in assay [3] worked out at 3.1. The “Ratio of Bcl-2 D103Y/Bcl-2 WT” value in assay [6] is given as 0.93.

Turning to `CC(C)c1ccccc1C1CN(Cc2ccccn2)CCN1C1CC2(CCN(c3ccc(C(=O)NS(=O)(=O)c4ccc(NC[C@H]5CC[C@](C)(O)CC5)c([N+](=O)[O-])c4)c(Oc4cnc5[nH]ccc5c4)c3)CC2)C1` (stereo partly drawn) [Example 131], the IC50 amounted to 0.05 nM in assay [1] (setting [7]); 0.05 nM in assay [1] (setting [8]); 0.51 nM in assay [2]; 0.57 nM in assay [4]; 4.34 nM in assay [5]; 0.29 nM in assay [6]. Moreover, the “Ratio of Bcl-2 G101V/WT” value in assay [3] amounted to 10. Also, in assay [6], the “Ratio of Bcl-2 D103Y/Bcl-2 WT” value stood at 5.7.

Regarding `CCOc1ccc(CN2CCN(C3CC4(CCN(c5ccc(C(=O)NS(=O)(=O)c6ccc(NC[C@H]7CC[C@](C)(O)CC7)c([N+](=O)[O-])c6)c(Oc6cnc7[nH]ccc7c6)c5)CC4)C3)C(c3ccccc3C(C)C)C2)cc1` (stereo partly drawn) [Example 40, 2-((1H-pyrrolo[2,3-b]pyridin-5-yl)oxy)-4-(2-(4-(4-ethoxybenzyl)-2-(2-isopropylphenyl)piperazin-1-yl)-7-azaspiro[3.5]nonan-7-yl)-N-((4-((((1r,4r)-4-hydroxy-4-methylcyclohexyl)methyl)amino)-3-nitrophenyl)sulfonyl)benzamide], the IC50 stood at 0.19 nM in assay [1] (setting [7]); 0.19 nM in assay [1] (setting [8]); 1.3 nM in assay [2]; 0.85 nM in assay [4]; 8.4 nM in assay [5]; 0.72 nM in assay [6]. In assay [3], the “Ratio of Bcl-2 G101V/WT” value is 6.8. The “Ratio of Bcl-2 D103Y/Bcl-2 WT” value in assay [6] amounted to 3.8.

As for `COc1ccc(CN2CCN(C3CC4(C3)CN(c3ccc(C(=O)NS(=O)(=O)c5ccc(NCC67CC8CC(C6)CC(OC)(C8)C7)c([N+](=O)[O-])c5)c(Oc5cnc6[nH]cc(F)c6c5)c3)C4)[C@H](c3ccccc3C(C)C)C2)cc1` [Example 357, 2-((3-fluoro-1H-pyrrolo[2,3-b]pyridin-5-yl)oxy)-4-(6-((R)-2-(2-isopropylphenyl)-4-(4-methoxybenzyl)piperazin-1-yl)-2-azaspiro[3.3]heptan-2-yl)-N-((4-((((1r,5R,7S)-3-methoxyadamantan-1-yl)methyl)amino)-3-nitrophenyl)sulfonyl) benzamide], the IC50 in assay [1] (setting [7]) is 0.57 nM; in assay [1] (setting [8]), 0.57 nM; in assay [2], 1.4 nM; in assay [4], 0.19 nM; in assay [5] it was 1 nM; in assay [6], 1 nM. For the same compound, the “Ratio of Bcl-2 G101V/WT” value in assay [3] was 2.5. Further, in assay [6], the “Ratio of Bcl-2 D103Y/Bcl-2 WT” value is listed as 1.8.

Consider `[2H]C([2H])([2H])Oc1cc(CN2CCN(C3CC4(C3)CN(c3ccc(C(=O)NS(=O)(=O)c5ccc(NC[C@H]6CC[C@](C)(O)CC6)c([N+](=O)[O-])c5)c(Oc5cnc6[nH]cc(F)c6c5)c3)C4)[C@H](c3ccccc3C(C)C)C2)cc2ccoc12` [Example 322, 2-((3-fluoro-1H-pyrrolo[2,3-b]pyridin-5-yl)oxy)-N-((4-((((1r,4r)-4-hydroxy-4-methylcyclohexyl)methyl)amino)-3-nitrophenyl)sulfonyl)-4-(6-((R)-2-(2-isopropylphenyl)-4-((7-(methoxy-d3)benzofuran-5-yl)methyl)piperazin-1-yl)-2-azaspiro[3.3]heptan-2-yl)benzamide], for which the IC50 in assay [1] (setting [7]) turned out to be 0.25 nM; in assay [1] (setting [8]), 0.25 nM; in assay [2], 0.72 nM; in assay [4], 0.18 nM; in assay [5], 0.32 nM; in assay [6] it was 0.36 nM. Moreover, the “Ratio of Bcl-2 G101V/WT” value in assay [3] is on record as 2.9. Moreover, the “Ratio of Bcl-2 D103Y/Bcl-2 WT” value in assay [6] was 1.4.

With `COc1cc(CN2CCN(C3CC4(C3)CN(c3ccc(C(=O)NS(=O)(=O)c5ccc(NC[C@H]6CC[C@](C)(O)CC6)c([N+](=O)[O-])c5)c(Oc5cnc6[nH]ccc6c5)c3)C4)[C@H](c3ccccc3C(C)C)C2)cc2cc(C)oc12` [Example 339, 2-((1H-pyrrolo[2,3-b]pyridin-5-yl)oxy)-N-((4-((((1r,4r)-4-hydroxy-4-methylcyclohexyl)methyl)amino)-3-nitrophenyl)sulfonyl)-4-(6-((R)-2-(2-isopropylphenyl)-4-((7-methoxy-2-methylbenzofuran-5-yl)methyl)piperazin-1-yl)-2-azaspiro[3.3]heptan-2-yl) benzamide], the IC50 in assay [1] (setting [7]) amounted to 0.28 nM; in assay [1] (setting [8]), 0.28 nM; in assay [2], 0.97 nM; in assay [4], 0.19 nM; in assay [5], 0.52 nM; in assay [6], 0.71 nM. The “Ratio of Bcl-2 G101V/WT” value in assay [3] was 3.5. For the same compound, the “Ratio of Bcl-2 D103Y/Bcl-2 WT” value in assay [6] is on record as 2.5.

As to `COc1cc(CN2CCN(C3CC4(CCN(c5ccc(C(=O)NS(=O)(=O)c6ccc(NC[C@H]7CC[C@](C)(O)CC7)c([N+](=O)[O-])c6)c(Oc6cnc7[nH]ccc7c6)c5)CC4)C3)C(c3ccccc3C(C)C)C2)cc(C)c1OC` (stereo partly drawn) [Example 158], the IC50 in assay [1] (setting [7]) is 0.27 nM; in assay [1] (setting [8]), 0.27 nM; in assay [2] it was 0.75 nM; in assay [4] it was 0.322 nM; in assay [5], 1.52 nM; in assay [6], 0.37 nM. For the same compound, in assay [3], the “Ratio of Bcl-2 G101V/WT” value is reported as 2.8. In addition, the “Ratio of Bcl-2 D103Y/Bcl-2 WT” value in assay [6] is 1.3.
